Experimental findings from article PMC5218480 (PLoS ONE, 2017) are described below.

SMILES strings stand for the structures.

The subject of the assay is MV-4-11 cells. The assay is described as follows: Gene expression microarray analysis (Affymetrix PrimeView) and GSEA. The format is cell-based, human. The note with it: MV-4-11, 48 hours, 1 μM each.

Consider `Nc1ccc(-c2cccs2)cc1NC(=O)c1ccc2c(c1)cc(C1CC1)n2CCN1CCOCC1` [ACY-1035], for which the “genes down-regulated greater than 2-fold relative to vehicle control” value came out at 72 genes.
